Laboratory results published in patent publication US20240246941A1, “SUBSTITUTED 4-(3-AMINOPROP-1-YL)AMINOQUINOLINE ANALOGS AS MODULATORS OF MELANOMA-ASSOCIATED ANTIGEN 11 UBIQUITIN LIGASE” (ST. JUDE CHILDREN'S RESEARCH HOSPITAL, INC., priority 2020, published 2024).

Target: MAGE-A11:PCF11 (Homo sapiens (Human), UniProt P43364)
Test: TR-FRET single point screening at 15 μM
Type: binding
Set-up: unit not given here
Excerpt: TR-FRET Assays and High-throughput Screen. Terbium-anti-GST antibody, 1 M Tris pH 7.5 1 M MgCl2 and 1 M DTT were purchased from Invitrogen (Carlsbad, CA), BSA was purchased from Sigma (St. Louis, MO). Dimethyl sulfoxide (DMSO) was purchased from Fisher Scientific (Pittsburgh, PA). Black 384-well low volume plates and 384-well polypropylene compound plates were purchased from Corning Incorporated (Tewksbury, MA). The St. Jude FDA drug and Bioactive library (11,293 chemicals), Drug-like library (10,073 chemicals) and Lead-like library (10,041 chemicals) were custom assembled and purchased from commercial sources including Sigma, Microsource (Gaylordsville, CT), selleckchem (Houston, TX), ChemDiv (San Diego, CA), ChemBridge (San Diego, CA), Enamine (Monmouth Jct., NJ), and Life Chemicals (Niagara-on-the-Lake, ON, Canada). They were arrayed (10 mM in DMSO) in 384-well polypropylene compound plates with columns 1, 2, 13 and 14 empty which were reserved for controls.
The TR-FRET assay buffer with a formula of 50 mM Tris pH 7.5, 20 mM MgCl2, 0.1 mg/ml BSA and 1 mM DTT was freshly prepared before each experiment. All TR-FRET assays were performed in black 384-well plates with 20 μl/well assay volume in the TR-FRET assay buffer at room temperature (approximately 25° C.). All peptides or compounds were solubilized in DMSO. To test the competitive activity of peptides or compounds against the interaction between GST-MAGEA11 MHD and FAM-PCF11_4 peptide, 10 μl/well peptide or compound at specified concentration was dispensed into a black 384-well low volume plate, followed by 5 μl/well FAM-PCF11_4 (800 nM), 5 μl/well Tb-anti-GST (20 nM) and GST-MAGEA11 MHD (20 nM). The assay components in each well was then mixed by shaking the plate on an IKA MTS 2/4 digital microtiter plate shaker (IKA Works; Wilmington, NC, USA) at 900 RPM for 1 minute. The plate was further centrifuged in an Eppendorf 5810 centrifuge with an A-4-62 swing-bucket rotor (Eppendorf AG, Hamburg, Germany) at 201 g (1000 rpm) for 30 seconds. The plate was then incubated for 90 min with a lid to avoid light exposure to the assay components. After incubation, the fluorescent emission signals at 520 nm and 490 nm channels of individual wells were measured with a PHERAstar FS plate reader (BMG Labtech; Durham, NC, USA) by using a 340 nm excitation filter, 100 μs delay time, and 200 μs integration time. The TR-FRET fluorescence emission ratio (TR-FRET signal) for each well was presented as 10 000×520 nm/490 nm, which was used directly for curve fitting, or further converted to % Inhibition based on the respective positive and negative controls. The graphic software GraphPad Prism 4.81 (GraphPad Software; La Jolla, CA, USA) was used to generate curves and derive IC50 values of tested peptides or compounds, if applicable.
TR-FRET screen for identifying MAGEA11 small molecule inhibitors was performed as follows. The primary one-concentration screening and subsequent 10 or 20-concentration dose response tests were accomplished with an automated High Throughput Screening system (HighRes Biosolutions, Beverly, MA)^30. In the primary screening, 15 μl/well FAM-PCF11_4 (267 nM) was first dispensed with a Multidrop Combi Reagent Dispenser (Thermo Fisher Scientific, Waltham, MA) to black 384-well low volume assay plates. The plates were spun down with a Velocity11 VSpin microplate centrifuge (Agilent Technologies, Santa Clara, CA). 30 nl/well of 10 mM compound/DMSO solutions, or DMSO alone, were transferred from compound plates (the St. Jude FDA drug and bioactive library, Drug-like library and Lead-like library) or a control plate to the assay plates with a Pin Tool (V&P Scientific, San Diego, CA). The compounds were arrayed in columns 3 to 12 and columns 15 to 24 of compound plates. The controls were arrayed in columns 1, 2, 13 and 14 of a compound plate. […]

[1] = single point TR-FRET screening at 15 μM against MAGE-A11:PCF11
[2] = single point TR-FRET screening of quinoline compounds against MAGE-A11:PCF11, 15 μM

Chain of MAGE-A11:PCF11 (P43364 218-429): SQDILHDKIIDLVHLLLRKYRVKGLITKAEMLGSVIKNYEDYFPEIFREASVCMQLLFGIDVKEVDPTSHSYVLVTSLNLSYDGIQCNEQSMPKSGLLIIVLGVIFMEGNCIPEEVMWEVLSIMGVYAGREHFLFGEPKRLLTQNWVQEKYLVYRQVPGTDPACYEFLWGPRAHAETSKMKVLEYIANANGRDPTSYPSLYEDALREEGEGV

## COc1ccc(N2CCN(c3c(S(=O)(=O)c4ccccc4)cnc4ccc(Cl)cc34)CC2)cc1 [SJ000083983]
[1]
  TR-FRET signal: −17.94

## CN(C)c1cc(NC(=O)CN2CCOCC2)c2ccccc2n1 [SJ000111677]
[1]
  TR-FRET signal: 4.988

## CN(C)c1cc(NC(=O)CNC(C)(C)CC(C)(C)C)c2ccccc2n1 [SJ000111678]
[1]
  TR-FRET signal: 10.62

## Cc1cc(NC(=O)CN2CCN(C(=O)c3ccco3)CC2)c2ccccc2n1 [SJ000111679]
[1]
  TR-FRET signal: −1.072

## Cc1cc(NC(=O)CN2CCN(C)CC2)c2ccccc2n1 [SJ000111680]
[1]
  TR-FRET signal: 4.647

## CCc1nc2ccccc2c(NC(=O)CN2CCN(c3ccccc3)CC2)c1C [SJ000111681]
[1]
  TR-FRET signal: 6.894

## CCc1nc2ccccc2c(NC(=O)CN2CCCCC2)c1C [SJ000111682]
[1]
  TR-FRET signal: 1.593

## O=C(CN1CCN(C(=O)c2ccccc2)CC1)Nc1c2c(nc3ccccc13)N(c1cccc(Cl)c1)CC2 [SJ000111683]
[1]
  TR-FRET signal: −264.3

## O=C(CN1CCN(C(c2ccccc2)c2ccccc2)CC1)Nc1c2c(nc3ccccc13)CCC2 [SJ000111684]
[1]
  TR-FRET signal: 11.85

## COc1ccc(-c2csc(N3CCN(c4cc(C)nc5ccccc45)CC3)n2)cc1OC [SJ000114009]
[1]
  TR-FRET signal: −53.43

## Cc1ccc(S(=O)(=O)c2cnc3ccccc3c2N2CCN(c3ccccc3)CC2)cc1 [SJ000117047]
[1]
  TR-FRET signal: −6.567

## COc1ccc2ncc(S(=O)(=O)c3ccc(C)cc3)c(N3CCN(c4ccccc4)CC3)c2c1 [SJ000117048]
[1]
  TR-FRET signal: −85.57

## CCOc1ccc2ncc(S(=O)(=O)c3ccc(C)cc3)c(N3CCN(c4ccccc4)CC3)c2c1 [SJ000117049]
[1]
  TR-FRET signal: −45.32

## Cc1ccc(S(=O)(=O)c2cnc3ccc(Cl)cc3c2N2CCN(c3ccccc3)CC2)cc1 [SJ000117050]
[1]
  TR-FRET signal: −3.321

## COc1ccc2ncc(S(=O)(=O)c3ccc(C)c(C)c3)c(N3CCN(c4ccccc4)CC3)c2c1 [SJ000117051]
[1]
  TR-FRET signal: −52.48

## Cc1ccc(S(=O)(=O)c2cnc3ccc(F)cc3c2N2CCN(c3ccccc3)CC2)cc1C [SJ000117052]
[1]
  TR-FRET signal: −16.9

## CCc1ccc(S(=O)(=O)c2cnc3ccccc3c2N2CCN(c3ccccc3)CC2)cc1 [SJ000117053]
[1]
  TR-FRET signal: −21.21

## CCOc1ccc2ncc(S(=O)(=O)c3ccc(Cl)cc3)c(N3CCN(c4ccccc4)CC3)c2c1 [SJ000117054]
[1]
  TR-FRET signal: −446.9

## O=S(=O)(c1ccc(Cl)cc1)c1cnc2ccc(F)cc2c1N1CCN(c2ccccc2)CC1 [SJ000117055]
[1]
  TR-FRET signal: 2.112

## CCc1ccc2ncc(S(=O)(=O)c3ccc(OC)cc3)c(N3CCN(c4ccccc4)CC3)c2c1 [SJ000117056]
[1]
  TR-FRET signal: −2.791

## Cc1ccc(S(=O)(=O)c2cnc3ccccc3c2N2CCN(c3ccc(F)cc3)CC2)cc1 [SJ000117057]
[1]
  TR-FRET signal: −20.61

## Cc1ccc(S(=O)(=O)c2cnc3ccc(C)cc3c2N2CCN(c3ccc(F)cc3)CC2)cc1 [SJ000117058]
[1]
  TR-FRET signal: −4.068

## COc1ccc2ncc(S(=O)(=O)c3ccc(C)cc3)c(N3CCN(c4ccc(F)cc4)CC3)c2c1 [SJ000117059]
[1]
  TR-FRET signal: −118.5

## CCOc1ccc2ncc(S(=O)(=O)c3ccc(C)cc3)c(N3CCN(c4ccc(F)cc4)CC3)c2c1 [SJ000117060]
[1]
  TR-FRET signal: −11.07

## Cc1ccc(S(=O)(=O)c2cnc3ccc(F)cc3c2N2CCN(c3ccc(F)cc3)CC2)cc1 [SJ000117061]
[1]
  TR-FRET signal: −70.5

## Cc1ccc(S(=O)(=O)c2cnc3ccccc3c2N2CCN(c3ccc(F)cc3)CC2)cc1C [SJ000117062]
[1]
  TR-FRET signal: −54.86

## O=S(=O)(c1ccc(F)cc1)c1cnc2ccc(Cl)cc2c1N1CCN(c2ccc(F)cc2)CC1 [SJ000117063]
[1]
  TR-FRET signal: −4.205

## CCc1ccc2ncc(S(=O)(=O)c3ccc(OC)cc3)c(N3CCN(c4ccc(F)cc4)CC3)c2c1 [SJ000117064]
[1]
  TR-FRET signal: −9.084

## COc1ccccc1N1CCN(c2c(S(=O)(=O)c3ccc(C)cc3)cnc3ccccc23)CC1 [SJ000117065]
[1]
  TR-FRET signal: −8.687

## COc1ccccc1N1CCN(c2c(S(=O)(=O)c3ccc(C)cc3)cnc3ccc(C)cc23)CC1 [SJ000117066]
[1]
  TR-FRET signal: −92.89

## COc1ccccc1N1CCN(c2c(S(=O)(=O)c3ccc(C)cc3)cnc3ccc(Cl)cc23)CC1 [SJ000117067]
[1]
  TR-FRET signal: −12.86

## COc1ccccc1N1CCN(c2c(S(=O)(=O)c3ccc(C)c(C)c3)cnc3ccccc23)CC1 [SJ000117068]
[1]
  TR-FRET signal: −5.706

## CCc1ccc(S(=O)(=O)c2cnc3ccccc3c2N2CCN(c3ccccc3OC)CC2)cc1 [SJ000117069]
[1]
  TR-FRET signal: −47.44

## COc1ccccc1N1CCN(c2c(S(=O)(=O)c3ccc(Cl)cc3)cnc3ccc(C)cc23)CC1 [SJ000117070]
[1]
  TR-FRET signal: −15.37

## COc1ccc(N2CCN(c3c(S(=O)(=O)c4ccccc4)cnc4ccc(OC)cc34)CC2)cc1 [SJ000117071]
[1]
  TR-FRET signal: −32.67

## COc1ccc(N2CCN(c3c(S(=O)(=O)c4ccc(C)cc4)cnc4ccc(Cl)cc34)CC2)cc1 [SJ000117072]
[1]
  TR-FRET signal: −5.838

## COc1ccc(N2CCN(c3c(S(=O)(=O)c4ccc(C)c(C)c4)cnc4ccc(F)cc34)CC2)cc1 [SJ000117073]
[1]
  TR-FRET signal: −13.26

## CCc1ccc(S(=O)(=O)c2cnc3ccccc3c2N2CCN(c3ccc(OC)cc3)CC2)cc1 [SJ000117074]
[1]
  TR-FRET signal: −11.2

## COc1ccc(N2CCN(c3c(S(=O)(=O)c4ccc(Cl)cc4)cnc4ccc(C)cc34)CC2)cc1 [SJ000117075]
[1]
  TR-FRET signal: −3.122

## COc1ccc2ncc(S(=O)(=O)c3ccc(C)cc3)c(N3CCN(c4ccccc4F)CC3)c2c1 [SJ000117076]
[1]
  TR-FRET signal: 6.02

## CCOc1ccc2ncc(S(=O)(=O)c3ccc(C)cc3)c(N3CCN(c4ccccc4F)CC3)c2c1 [SJ000117077]
[1]
  TR-FRET signal: 5.159

## COc1ccc2ncc(S(=O)(=O)c3ccc(C)c(C)c3)c(N3CCN(c4ccccc4F)CC3)c2c1 [SJ000117078]
[1]
  TR-FRET signal: −8.289

## CCc1ccc(S(=O)(=O)c2cnc3ccccc3c2N2CCN(c3ccccc3F)CC2)cc1 [SJ000117079]
[1]
  TR-FRET signal: −56.58

## Cc1ccc(S(=O)(=O)c2cnc3ccccc3c2N2CCN(c3ccc(C)cc3C)CC2)cc1 [SJ000117080]
[1]
  TR-FRET signal: 3.172

## Cc1cccc(N2CCN(c3c(S(=O)(=O)c4ccccc4)cnc4ccccc34)CC2)c1C [SJ000117081]
[1]
  TR-FRET signal: −13.13

## COc1ccc2ncc(S(=O)(=O)c3ccccc3)c(N3CCN(c4cccc(C)c4C)CC3)c2c1 [SJ000117082]
[1]
  TR-FRET signal: −241.8

## Cc1ccc(C)c(N2CCN(c3c(S(=O)(=O)c4ccccc4)cnc4ccc(F)cc34)CC2)c1 [SJ000117083]
[1]
  TR-FRET signal: −15.38

## Cc1ccc(S(=O)(=O)c2cnc3ccccc3c2N2CCN(c3cc(C)ccc3C)CC2)cc1 [SJ000117084]
[1]
  TR-FRET signal: 2.443

## COc1ccc2ncc(S(=O)(=O)c3ccc(C)cc3)c(N3CCN(Cc4ccccc4)CC3)c2c1 [SJ000117085]
[1]
  TR-FRET signal: −82.22

## CCc1ccc(S(=O)(=O)c2cnc3ccccc3c2N2CCN(Cc3ccccc3)CC2)cc1 [SJ000117086]
[1]
  TR-FRET signal: −55.26

## CCOC(=O)c1cnc2ccc(OC)cc2c1NCCCN1CCOCC1 [SJ000127046]
[2]
  TR-FRET signal: 2.945

## CCOC(=O)c1cnc2ccc(C(=O)OC)cc2c1NCCN1CCOCC1 [SJ000127079]
[1]
  TR-FRET signal: −7.813

## CCOC(=O)c1cnc2c(C)cc(Cl)cc2c1NCCN1CCOCC1 [SJ000129560]
[1]
  TR-FRET signal: 4.96

## CCOC(=O)c1cnc2c(C)c(Cl)ccc2c1NCCCN1CCOCC1 [SJ000129912]
[2]
  TR-FRET signal: −23.26
